Patent US20100204230A1, “PIPERAZINE DERIVATIVES FOR TREATMENT OF AD AND RELATED CONDITIONS” (priority 2007, published 2010)
pIC50: −log10 of the molar value.

Biological target: T1, γ-secretase (Aβ(1-42) production in SH-SY5Y neuroblastoma cells overexpressing SPA4CT) (Homo sapiens, UniProt P49768)
T1 construct: Human SH-SY5Y neuroblastoma cells overexpressing the direct 7-secretase substrate SPA4CT; endogenous in cells; host or cells: Human SH-SY5Y neuroblastoma cells (stably overexpressing the substrate SPA4CT, induced with sodium butyrate)
Assay: Cell-based γ-secretase assay, Aβ(1-42) inhibition
Conditions: overnight incubation, Meso Scale detection of Aβ(42)
Protocol: Cell-Based γ-Secretase Assay
Human SH-SY5Y neuroblastoma cells overexpressing the direct 7-secretase substrate SPA4CT were induced with sodium butyrate (10 mM) for 4 hours prior to plating. Cells were plated at 35,000 cells/well/100 μl in 96-well plates in phenol red-free MEM/10% FBS, 50 mM HEPES, 1% Glutamine and incubated for 2 hrs at 37° C., 5% CO2.
Compounds for testing were diluted into Me2SO to give a ten point dose-response curve. Typically 10 μl of these diluted compounds in Me2SO were further diluted into 182 μl dilution buffer (phenol red-free MEM/10% FBS, 50 mM HEPES, 1% Glutamine) and 10 μl of each dilution was added to the cells in 96-well plates (yielding a final Me2SO concentration of 0.5%). Appropriate vehicle and inhibitor controls were used to determine the window of the assay.
After incubation overnight at 37° C., 5% CO2, 25 μl and 50 μl media were transferred into a standard Meso avidin-coated 96-well plate for detection of Aβ(40) and Aβ(42) peptides, respectively. 25 μl Meso Assay buffer (PBS, 2% BSA, 0.2% Tween-20) was added to the Aβ(40) wells followed by the addition of 25 μl of the respective antibody premixes to the wells: • Aβ(40) premix: 1 μg/ml ruthenylated G2-10 antibody, 4 μg/ml biotinylated 4G8 antibody diluted in Origen buffer • Aβ(42) premix: 1 μg/ml ruthenylated G2-11 antibody, 4 μg/ml biotinylated 4G8 antibody diluted in Origen buffer
(Biotinylated 4G8 antibody supplied by Signet Pathology Ltd; G2-10 and G2-11 antibodies supplied by Chemicon)
After overnight incubation of the assay plates on a shaker at 4° C., the Meso Scale Sector 6000 Imager was calibrated according to the manufacturer's instructions. After washing the plates 3 times with 150 μl of PBS per well, 150 μl Meso Scale Discovery read buffer was added to each well and the plates were read on the Sector 6000 Imager according to the manufacturer's instructions.
LD50 and IC50 values for inhibition of Aβ(40) and Aβ(42) were calculated by nonlinear regression fit analysis using the appropriate software (eg. Excel fit). The total signal and the background were defined by the corresponding Me2SO and inhibitor controls.

| Structure (SMILES) | pIC50 |
| --- | --- |
| CCN(CC)c1ccc(Nc2ccnc(N3CCN(c4ccc(OC)cc4)CC3)n2)c(C)c1 [Example 3, N,N-Diethyl-N-{2-[4-(4-methoxy-phenyl)-piperazin-1-yl]-pyrimidin-4-yl}-2-methyl-benzene-1,4-diamine] | 5.52 to 6.00 |
| CCN(CC)c1ccc(Nc2ccnc(N3CCN(c4ccc(OC)nc4)CC3)n2)c(C)c1 [Example 5] | 5.52 to 6.00 |
| COc1ccc(N2CCN(c3ncc(F)c(Nc4cc(C(C)(C)C)ccc4C)n3)CC2(C)C)cc1 [Example 8] | 6.00 to 6.30 |
| CCN(CC)c1ccc(Nc2ccnc(N3CCN(c4ccc(OC)cc4)C(C)C3)n2)c(C)c1 (stereo not shown) [Example 10, N4,N4-diethyl-N1-{2-[4-(4-methoxyphenyl)-3-methylpiperazin-1-yl]pyrimidin-4-yl}-2-methylbenzene-1,4-diamine] | 6.00 to 6.30 |
| COc1ccc(N2CCN(c3nccc(Nc4cc(OC)ccc4C)n3)CC2(C)C)cc1 [Example 11, N-(5-methoxy-2-methylphenyl)-2-[4-(4-methoxyphenyl)-3,3-dimethylpiperazin-1-yl]pyrimidin-4-amine] | 5.52 to 6.00 |
| CCN(CC)c1ccc(Nc2nc(N3CCN(c4ccc(OC)cc4)C(C)(C)C3)ncc2C)c(C)c1 [Example 14, N4,N4-diethyl-N1-{2-[4-(4-methoxyphenyl)-3,3-dimethylpiperazin-1-yl]-5-methylpyrimidin-4-yl}-2-methylbenzene-1,4-diamine] | > 6.30 |
| CCN(CC)c1ccc(Nc2cc(C)nc(N3CCN(c4ccc(OC)cc4)C(C)(C)C3)n2)c(C)c1 [Example 15, N4,N4-diethyl-N1-{2-[4-(4-methoxyphenyl)-3,3-dimethylpiperazin-1-yl]-6-methylpyrimidin-4-yl}-2-methylbenzene-1,4-diamine] | 6.00 to 6.30 |
| CCN(CC)c1cc(C)c(Nc2ccnc(N3CCN(c4ccc(OC)cc4)C(C)(C)C3)n2)cc1C [Example 16, N4,N4-diethyl-N1-{2-[4-(4-methoxyphenyl)-3,3-dimethylpiperazin-1-yl]pyrimidin-4-yl}-2,5-dimethylbenzene-1,4-diamine] | > 6.30 |
| CCN(CC)c1ccc(Nc2nc(N3CCN(c4ccc(OC)cc4)C(C)(C)C3)ncc2F)c(C)c1 [Example 18, N4,N4-diethyl-N1--{5-fluoro-2-[4-(4-methoxyphenyl)-3,3-dimethylpiperazin-1-yl]pyrimidin-4-yl}-2-methylbenzene-1,4-diamine] | > 6.30 |
| CCN(CC)c1ccc(Nc2nc(N3CCN(c4ccc(OC)cc4)C(C)(C)C3)ncc2Cl)c(C)c1 [Example 19, N1-{5-chloro-2-[4-(4-methoxyphenyl)-3,3-dimethylpiperazin-1-yl]pyrimidin-4-yl}-N4,N4-diethyl-2-methylbenzene-1,4-diamine] | 6.00 to 6.30 |
| CCN(CC)c1ccc(Nc2nc(N3CCN(c4ccc(OC)cc4)C(C)(C)C3)ncc2Br)c(C)c1 [Example 20, N1-{5-bromo-2-[4-(4-methoxyphenyl)-3,3-dimethylpiperazin-1-yl]pyrimidin-4-yl}-N4,N4-diethyl-2-methylbenzene-1,4-diamine] | 6.00 to 6.30 |
| CCN(CC)c1ccc(Nc2cc(C(=O)OC)nc(N3CCN(c4ccc(OC)cc4)C(C)(C)C3)n2)c(C)c1 [Example 22, methyl 6-{[4-(diethylamino)-2-methylphenyl]amino}-2-[4-(4-methoxyphenyl)-3,3-dimethylpiperazin-1-yl]pyrimidine-4-carboxylate] | > 6.30 |
| CCN(CC)c1ccc(Nc2ccnc(N3CCN(c4ccc(OC)c(OC)c4)CC3)n2)c(C)c1 [Example 24, N1-{2-[4-(3,4-dimethoxyphenyl)piperazin-1-yl]pyrimidin-4-yl}-N4,N4-diethyl-2-methylbenzene-1,4-diamine] | 5.52 to 6.00 |
| CCN(CC)c1ccc(Nc2nc(N3CCN(c4ccc(OC)cc4)C(C)(C)C3)ncc2OC)c(C)c1 [Example 25, N4,N4-diethyl-N1-{5-methoxy-2-[4-(4-methoxyphenyl)-3,3-dimethylpiperazin-1-yl]pyrimidin-4-yl}-2-methylbenzene-1,4-diamine] | > 6.30 |
| CCN(CC)c1ccc(Nc2cc(C(=O)O)nc(N3CCN(c4ccc(OC)cc4)C(C)(C)C3)n2)c(C)c1 [Example 26, 6-[[4-(diethylamino)-2-methylphenyl]amino]-2-[4-(4-methoxyphenyl)-3,3-dimethyl-1-piperazinyl]-4-pyrimidinecarboxylic acid] | 6.00 to 6.30 |
| CCN(CC)c1ccc(Nc2cc(C(=O)N(C)C)nc(N3CCN(c4ccc(OC)cc4)C(C)(C)C3)n2)c(C)c1 [Example 27, 6-{[4-(diethylamino)-2-methylphenyl]amino}-2-[4-(4-methoxyphenyl)-3,3-dimethylpiperazin-1-yl]-N,N-dimethylpyrimidine-4-carboxamide] | > 6.30 |
| CCOc1cc(C)c(Nc2cc(C(=O)OC)nc(N3CCN(c4ccc(OC)cc4)C(C)(C)C3)n2)cc1C(C)C [Example 28, 6-[(4-ethoxy-5-isopropyl-2-methylphenyl)amino]-2-[4-(4-methoxyphenyl)-3,3-dimethylpiperazin-1-yl]pyrimidine-4-carboxylate methyl] | > 6.30 |
| COc1ccc(N2CCN(c3nccc(Nc4cc(C(C)(C)C)nn4C)n3)CC2(C)C)cc1 [Example 37, N-(3-tert-butyl-1-methyl-1H-pyrazol-5-yl)-2-[4-(4-methoxyphenyl)-3,3-dimethylpiperazin-1-yl]pyrimidin-4-amine] | > 6.30 |
| COc1ccc(N2CCN(c3ncc(F)c(Nc4cc(C(C)(C)C)nn4C)n3)CC2(C)C)cc1 [Example 38, N-(3-tert-butyl-1-methyl-1H-pyrazol-5-yl)-5-fluoro-2-[4-(4-methoxyphenyl)-3,3-dimethylpiperazin-1-yl]pyrimidin-4-amine] | > 6.30 |
| COc1ccc(N2CCN(c3nccc(Nc4ccc(-n5cccn5)cc4C)n3)CC2(C)C)cc1 [Example 41, 2-[4-(4-methoxyphenyl)-3,3-dimethylpiperazin-1-yl]-N-[2-methyl-4-(1H-pyrazol-1-yl)phenyl]pyrimidin-4-amine] | 6.00 to 6.30 |
| COc1ccc(N2CCN(c3nccc(Nc4ccc(N5CCC5)cc4C)n3)CC2(C)C)cc1 [Example 43, N-(4-azetidin-1-yl-2-methylphenyl)-2-[4-(4-methoxyphenyl)-3,3-dimethylpiperazin-1-yl]pyrimidin-4-amine] | 6.00 to 6.30 |
| CCCCc1ccc(Nc2ccnc(N3CCN(c4ccc(OC)cc4)C(C)(C)C3)n2)c(C)c1 [Example 44, N-(4-butyl-2-methylphenyl)-2-[4-(4-methoxyphenyl)-3,3-dimethylpiperazin-1-yl]pyrimidin-4-amine] | 5.52 to 6.00 |
| CCOc1cc(C)c(Nc2ccnc(N3CCN(c4ccc(OC)cc4)C(C)(C)C3)n2)cc1C(C)C [Example 45, N-(4-ethoxy-5-isopropyl-2-methylphenyl)-2-[4-(4-methoxyphenyl)-3,3-dimethylpiperazin-1-yl]pyrimidin-4-amine] | > 6.30 |
| COc1ccc(N2CCN(c3ncc(F)c(Nc4cc(C(C)(C)C)ccc4C)n3)CC2(C)C)cc1F [Example 88, N-(5-tert-butyl-2-methylphenyl)-5-fluoro-2-[4-(3-fluoro-4-methoxyphenyl)-3,3-dimethylpiperazin-1-yl]pyrimidin-4-amine] | 6.00 to 6.30 |
| COc1ccc(N2CCN(c3nc(Nc4cc(C(C)(C)C)ccc4C)cc(C(=O)N(C)CCN(C)C)n3)CC2(C)C)cc1 [Example 93, 6-[(5-tert-butyl-2-methylphenyl)amino]-N-[2-(dimethylamino)ethyl]-2-[4-(4-methoxyphenyl)-3,3-dimethylpiperazin-1-yl]-N-methylpyrimidine-4-carboxamide] | > 6.30 |
